Laboratory results taken from ChEMBL document CHEMBL4152237, “Identification of novel β-lactams and pyrrolidinone derivatives as selective Histamine-3 receptor (H3R) modulators as possible anti-obesity agents” (Eur J Med Chem, 2018).
pEC50: −log10 of the molar value. Activity calls are given as the source filed them. Unless noted, no cut-off for these calls is given here.

What was measured:
[1] = target: Histamine H4 receptor (Homo sapiens) (UniProt Q9H3N8); assay: Agonist activity at H4R (unknown origin) expressed in HEK293 cells harboring glosensor-22F cAMP plasmid DNA assessed as inhibition of forskolin-stimulated cAMP accumulation at 10 uM preincubated with cells followed by forskolin addition measured after 10 mins by luminescence assay; type: functional, cell-based
HEK-293T = assay: Cytotoxicity against HEK293T cells assessed as reduction in cell viability at 1 to 10 uM after 24 hrs by XTT assay; type: cell-based; details: human
[2] = Octanol/water partition co-efficient, log P of the compound after 24 hrs by HPLC based shake-flask method; type: physicochemical
Histamine H3 receptor [3] = target: T1, Histamine H3 receptor (Homo sapiens, UniProt Q9Y5N1); assay: (§1) Agonist activity at human H3R expressed in HEK293 cells harboring glosensor-22F cAMP plasmid DNA assessed as inhibition of forskolin-stimulated cAMP accumulation preincubated with cells followed by forskolin addition measured after 10 mins by luminescence assay; type: functional, cell-based; details: for pEC50: read-out: EC50; for EC50: read-out: pEC50 (converted)
[4] = target: T2, 5-hydroxytryptamine receptor 2C (Homo sapiens) (UniProt P28335); assay: Agonist activity at human 5-HT2C expressed in HEK293 cells harboring luc2P/NFAT-RE plasmid at 10 uM after 6 to 8 hrs by luciferase reporter gene assay; type: functional, cell-based
T2 sequence (whole entry): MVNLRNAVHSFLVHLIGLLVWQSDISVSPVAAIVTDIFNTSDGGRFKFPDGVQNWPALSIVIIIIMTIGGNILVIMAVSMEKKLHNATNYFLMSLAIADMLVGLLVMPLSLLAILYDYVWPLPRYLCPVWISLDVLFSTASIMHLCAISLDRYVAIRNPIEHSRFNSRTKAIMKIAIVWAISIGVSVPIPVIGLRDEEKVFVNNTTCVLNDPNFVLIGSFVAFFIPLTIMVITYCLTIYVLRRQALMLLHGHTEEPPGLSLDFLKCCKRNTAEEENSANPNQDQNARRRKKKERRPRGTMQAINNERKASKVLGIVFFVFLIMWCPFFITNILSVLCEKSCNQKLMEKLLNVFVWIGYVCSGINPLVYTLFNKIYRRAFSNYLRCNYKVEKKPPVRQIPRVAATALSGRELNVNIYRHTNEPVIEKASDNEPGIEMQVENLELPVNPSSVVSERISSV

[5] = target: Histamine H1 receptor (Homo sapiens) (UniProt P35367); assay: Antagonist activity at H1R (unknown origin) expressed in HEK293 cells harboring luc2P/NFAT-RE plasmid at 10 uM after 6 to 8 hrs by luciferase reporter gene assay; type: functional, cell-based
[6] = target: Histamine H4 receptor (Homo sapiens) (UniProt Q9H3N8); assay: Antagonist activity at H4R (unknown origin) expressed in HEK293 cells harboring glosensor-22F cAMP plasmid DNA assessed as effect on forskolin-stimulated cAMP accumulation at 10 uM preincubated with cells followed by forskolin addition measured after 10 mins by luminescence assay; type: functional, cell-based
[7] = target: Histamine H2 receptor (Homo sapiens) (UniProt P25021); assay: Agonist activity at H2R (unknown origin) expressed in HEK293 cells harboring glosensor-22F cAMP plasmid DNA assessed as inhibition of forskolin-stimulated cAMP accumulation at 10 uM preincubated with cells followed by forskolin addition measured after 10 mins by luminescence assay; type: functional, cell-based
[8] = target: Luciferin 4-monooxygenase (Photinus pyralis) (UniProt P08659); assay: Inhibition of firefly luciferase activity expressed in HEK293 cells assessed as reduction in forskolin-stimulated cAMP accumulation up to 10 uM preincubated with cells followed by forskolin addition measured after 10 mins by luminescence assay; type: cell-based
Histamine H3 receptor [9] = target: T1, Histamine H3 receptor; assay: as §1, with “accumulation at 1 uM” for “accumulation”, “mins in presence of H3R antagonist GSK334429” for “mins”; type: functional, cell-based
[10] = target: Histamine H1 receptor (Homo sapiens) (UniProt P35367); assay: Agonist activity at H1R (unknown origin) expressed in HEK293 cells harboring luc2P/NFAT-RE plasmid at 10 uM after 6 to 8 hrs by luciferase reporter gene assay; type: functional, cell-based
[11] = target: T2, 5-hydroxytryptamine receptor 2C (Homo sapiens); assay: Antagonist activity at human 5-HT2C expressed in HEK293 cells harboring luc2P/NFAT-RE plasmid at 10 uM after 6 to 8 hrs by luciferase reporter gene assay; type: functional, cell-based
[12] = target: Histamine H2 receptor (Homo sapiens) (UniProt P25021); assay: Antagonist activity at H2R (unknown origin) expressed in HEK293 cells harboring glosensor-22F cAMP plasmid DNA assessed as effect on forskolin-stimulated cAMP accumulation at 10 uM preincubated with cells followed by forskolin addition measured after 10 mins by luminescence assay; type: functional, cell-based
Mus musculus [13] = assay: Anorexic effect in diet-induced obese C57BL/6J mouse assessed as reduction in cumulative food intake at 10 mg/kg, po pretreated for 30 mins followed by food addition measured after 4 hrs; type: functional, organism-based
Mus musculus [14] = assay: Anorexic effect in diet-induced obese C57BL/6J mouse assessed as reduction in cumulative food intake at 20 mg/kg, po pretreated for 30 mins followed by food addition measured after 4 hrs; type: functional, organism-based

Histamine H1 receptor (Homo sapiens), sequence (P35367 whole entry): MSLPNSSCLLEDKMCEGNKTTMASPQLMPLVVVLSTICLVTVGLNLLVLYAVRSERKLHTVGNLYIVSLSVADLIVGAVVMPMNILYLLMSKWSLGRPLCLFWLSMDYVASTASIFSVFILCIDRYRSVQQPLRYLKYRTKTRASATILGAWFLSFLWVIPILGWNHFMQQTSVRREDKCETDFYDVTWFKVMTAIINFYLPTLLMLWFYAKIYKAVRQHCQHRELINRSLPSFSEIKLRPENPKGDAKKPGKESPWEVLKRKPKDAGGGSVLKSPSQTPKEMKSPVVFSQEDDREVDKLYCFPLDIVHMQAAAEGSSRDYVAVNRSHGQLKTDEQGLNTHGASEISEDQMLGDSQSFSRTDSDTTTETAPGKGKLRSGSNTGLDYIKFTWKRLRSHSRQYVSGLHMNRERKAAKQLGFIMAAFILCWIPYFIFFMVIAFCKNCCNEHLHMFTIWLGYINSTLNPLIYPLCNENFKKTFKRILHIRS
Histamine H4 receptor (Homo sapiens), sequence (Q9H3N8 whole entry): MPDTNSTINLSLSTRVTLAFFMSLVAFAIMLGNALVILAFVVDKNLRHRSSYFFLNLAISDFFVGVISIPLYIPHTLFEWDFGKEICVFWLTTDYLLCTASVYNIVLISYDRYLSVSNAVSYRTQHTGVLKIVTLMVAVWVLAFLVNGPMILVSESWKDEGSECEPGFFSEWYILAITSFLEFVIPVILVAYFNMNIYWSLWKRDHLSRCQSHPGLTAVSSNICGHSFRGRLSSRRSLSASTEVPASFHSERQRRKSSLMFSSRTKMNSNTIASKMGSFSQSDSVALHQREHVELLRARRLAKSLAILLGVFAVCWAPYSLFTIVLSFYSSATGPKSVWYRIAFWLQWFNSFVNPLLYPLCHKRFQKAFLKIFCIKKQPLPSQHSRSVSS
Histamine H2 receptor (Homo sapiens), sequence (P25021 whole entry): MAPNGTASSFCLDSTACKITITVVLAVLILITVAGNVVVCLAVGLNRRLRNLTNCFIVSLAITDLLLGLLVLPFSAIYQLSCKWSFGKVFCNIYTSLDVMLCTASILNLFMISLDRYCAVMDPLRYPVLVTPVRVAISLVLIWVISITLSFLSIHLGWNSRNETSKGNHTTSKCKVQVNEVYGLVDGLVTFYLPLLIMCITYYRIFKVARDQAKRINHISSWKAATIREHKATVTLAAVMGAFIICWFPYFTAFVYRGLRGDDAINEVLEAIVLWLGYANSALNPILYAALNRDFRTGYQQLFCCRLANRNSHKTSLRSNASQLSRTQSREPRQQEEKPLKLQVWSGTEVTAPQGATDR
T1 sequence (Q9Y5N1 whole entry): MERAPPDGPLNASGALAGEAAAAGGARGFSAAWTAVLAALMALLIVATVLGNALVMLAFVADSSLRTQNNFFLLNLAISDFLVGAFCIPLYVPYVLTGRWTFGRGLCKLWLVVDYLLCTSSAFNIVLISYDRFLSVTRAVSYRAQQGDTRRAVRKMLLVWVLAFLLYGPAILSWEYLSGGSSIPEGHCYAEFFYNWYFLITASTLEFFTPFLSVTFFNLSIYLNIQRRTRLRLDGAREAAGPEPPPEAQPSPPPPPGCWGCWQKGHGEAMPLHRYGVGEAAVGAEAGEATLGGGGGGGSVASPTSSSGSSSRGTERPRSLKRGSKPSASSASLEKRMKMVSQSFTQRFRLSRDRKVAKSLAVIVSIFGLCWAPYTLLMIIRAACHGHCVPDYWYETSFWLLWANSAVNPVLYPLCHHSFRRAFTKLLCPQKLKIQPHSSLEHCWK
Luciferin 4-monooxygenase (Photinus pyralis), sequence (P08659 whole entry): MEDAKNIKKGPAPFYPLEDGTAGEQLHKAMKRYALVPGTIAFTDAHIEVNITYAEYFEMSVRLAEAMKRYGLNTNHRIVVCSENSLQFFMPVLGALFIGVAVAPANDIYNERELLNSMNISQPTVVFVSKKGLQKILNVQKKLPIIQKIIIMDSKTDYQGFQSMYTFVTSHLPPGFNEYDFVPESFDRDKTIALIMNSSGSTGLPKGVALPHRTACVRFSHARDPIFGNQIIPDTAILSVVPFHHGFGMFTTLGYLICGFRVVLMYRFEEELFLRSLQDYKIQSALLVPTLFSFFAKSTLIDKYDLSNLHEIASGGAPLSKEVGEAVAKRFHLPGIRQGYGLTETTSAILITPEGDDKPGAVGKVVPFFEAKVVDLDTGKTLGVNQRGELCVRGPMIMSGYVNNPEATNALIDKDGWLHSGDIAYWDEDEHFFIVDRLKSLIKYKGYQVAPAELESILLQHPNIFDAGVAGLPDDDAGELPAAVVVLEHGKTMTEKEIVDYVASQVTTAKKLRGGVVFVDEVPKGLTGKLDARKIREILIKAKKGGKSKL

Row | Compound | inhibition [1] | Activity (HEK-293T) | logP at 24 h [2] | pEC50 (Histamine H3 receptor [3]) | Activity [4] | inhibition [5] | inhibition [6] | inhibition [7] | inhibition [8] | inhibition (Histamine H3 receptor [9]) | Activity [10] | inhibition [11] | inhibition [12] | Activity (Mus musculus [13]) | Activity (Mus musculus [14]) | EC50 (Histamine H3 receptor [3])
1 | COc1ccc(NC2(c3cccc(Cl)c3)C(=O)N(C3CCCCC3)C(=O)/C2=C/c2ccccc2)cc1OC (centres undefined) | inactive | Non-Toxic | 2.45 | 8.57 | inactive | inactive | inactive | inactive | inactive | inactive | inactive | inactive | inactive | – | – | –
2 | COc1cc(N2C(=O)C(=Cc3ccccc3)C2(C(=O)NC2CCCCC2)c2ccc(F)cc2)cc(OC)c1OC (centres undefined) | inactive | Non-Toxic | 1.85 | 6.98 | inactive | inactive | inactive | inactive | inactive | inactive | inactive | inactive | inactive | – | – | –
3 | C[C@H]1CNCCc2ccc(Cl)cc21 | – | – | – | – | – | – | – | – | – | – | – | – | – | Active | – | –
4 | O=C1C=C[C@]23C(c4ccccc4)=CC(=O)N2[C@H](c2cc(F)cc(F)c2)C(=O)N[C@@H]3C1 | inactive | Non-Toxic | – | 8.00 | inactive | inactive | inactive | inactive | inactive | inactive | inactive | inactive | inactive | – | – | –
5 | COc1ccc(C(C(=O)NC2CCCCC2)N2C(=O)C(c3ccc(C(F)(F)F)cc3)=C(c3ccccc3)C23C=CC(=O)C=C3)c(OC)c1OC (centres undefined) | inactive | Non-Toxic | 2.74 | 7.89 | inactive | inactive | inactive | inactive | inactive | inactive | inactive | inactive | inactive | – | – | –
6 | O=C1C=C[C@]23C(c4ccccc4)=CC(=O)N2[C@H](c2ccc([N+](=O)[O-])cc2)C(=O)N[C@@H]3C1 | inactive | Non-Toxic | 1.78 | 9.52 | inactive | inactive | inactive | inactive | inactive | inactive | inactive | inactive | inactive | – | – | –
7 | COc1cc(N2C(=O)C(=Cc3ccccc3)C2(C(=O)NC(C)(C)C)c2ccc(Cl)c(F)c2)cc(OC)c1OC (centres undefined) | inactive | Non-Toxic | – | 8.96 | inactive | inactive | inactive | inactive | inactive | inactive | inactive | inactive | inactive | – | – | –
8 | O=C1C=CC2(C=C1)C(c1ccccc1)=CC(=O)N2C(C(=O)NC1CCCCC1)c1ccc(Cl)cc1 (centres undefined) | inactive | Non-Toxic | 3.8 | 6.98 | inactive | inactive | inactive | inactive | inactive | inactive | inactive | inactive | inactive | – | – | –
9 | COc1cc(NC2(c3cccc(Cl)c3)C(=O)N(C(C)(C)C)C(=O)/C2=C/c2ccccc2)cc(OC)c1OC (centres undefined) | inactive | Non-Toxic | 2.96 | 8.57 | inactive | inactive | inactive | inactive | inactive | inactive | inactive | inactive | inactive | inactive | Active | –
10 | O=C1C=C[C@]23C(c4ccccc4)=CC(=O)N2[C@H](c2ccc(C(F)(F)F)cc2)C(=O)N[C@@H]3C1 | inactive | Non-Toxic | 2.1 | 7.03 | inactive | inactive | inactive | inactive | inactive | inactive | inactive | inactive | inactive | – | – | –
11 | COc1cc(N2C(=O)C(=Cc3ccccc3)C2(C(=O)NC(C)(C)C)c2cc(F)cc(F)c2)cc(OC)c1OC (centres undefined) | inactive | Non-Toxic | 2.34 | 9.52 | inactive | inactive | inactive | inactive | inactive | inactive | inactive | inactive | inactive | – | – | –
12 | COc1ccc(N2C(=O)/C(=C\c3ccccc3)C2(C(=O)NC(C)(C)C)c2ccc(Br)cc2)cc1OC (centres undefined) | inactive | Non-Toxic | – | 7.62 | inactive | inactive | inactive | inactive | inactive | inactive | inactive | inactive | inactive | – | – | 25.7 nM
13 | COc1ccc(NC2(c3ccc(F)cc3)C(=O)N(C(C)(C)C)C(=O)/C2=C/c2ccccc2)cc1 (centres undefined) | inactive | Non-Toxic | – | 8.89 | inactive | inactive | inactive | inactive | inactive | inactive | inactive | inactive | inactive | – | – | 1.23 nM
14 | COc1cc(NC2(c3ccc(Br)cc3)C(=O)N(C(C)(C)C)C(=O)/C2=C/c2ccccc2)cc(OC)c1OC (centres undefined) | inactive | Non-Toxic | – | 8.24 | inactive | inactive | inactive | inactive | inactive | inactive | inactive | inactive | inactive | – | – | –
